The results in this text go back to PMC7736581, “Activation of the IRE1 RNase through remodeling of the kinase front pocket by ATP-competitive ligands” (Nature Communications, 2020).

The target of test [1] is Inositol-Requiring Enzyme 1 (IRE1) (Homo sapiens, UniProt O75460). Briefly: co-crystal structure ([…] Å); also TR-FRET kinase binding, HX-MS, RNase activation. Also on record: gene ERN1; IRE1 KR (G547-L977), unphosphorylated (IRE1-0P). In general terms: Time-resolved FRET reads energy transfer from a long-lived donor to a nearby acceptor.
The target of a further test is Fyn (Homo sapiens, UniProt P06241). Nature of the test: biochemical. On the set-up: Invitrogen kinase panel: Z'Lyte activity (ATP at Km) or LanthaScreen competitive ATP-site binding, percent inhibition.
The next test has as its target T1, FAK2 (Homo sapiens, UniProt Q14289).
T1 construct: gene PTK2B
Nature of the test: biochemical. Also on record: Invitrogen kinase panel: Z'Lyte activity (ATP at Km) or LanthaScreen competitive ATP-site binding, percent inhibition.

A further test has as its target T2, GCK (Homo sapiens, UniProt Q12851).
T2 construct: gene MAP4K2
Nature of the test: biochemical. On the set-up: Invitrogen kinase panel: Z'Lyte activity (ATP at Km) or LanthaScreen competitive ATP-site binding, percent inhibition.

T1 sequence (Q14289 whole entry): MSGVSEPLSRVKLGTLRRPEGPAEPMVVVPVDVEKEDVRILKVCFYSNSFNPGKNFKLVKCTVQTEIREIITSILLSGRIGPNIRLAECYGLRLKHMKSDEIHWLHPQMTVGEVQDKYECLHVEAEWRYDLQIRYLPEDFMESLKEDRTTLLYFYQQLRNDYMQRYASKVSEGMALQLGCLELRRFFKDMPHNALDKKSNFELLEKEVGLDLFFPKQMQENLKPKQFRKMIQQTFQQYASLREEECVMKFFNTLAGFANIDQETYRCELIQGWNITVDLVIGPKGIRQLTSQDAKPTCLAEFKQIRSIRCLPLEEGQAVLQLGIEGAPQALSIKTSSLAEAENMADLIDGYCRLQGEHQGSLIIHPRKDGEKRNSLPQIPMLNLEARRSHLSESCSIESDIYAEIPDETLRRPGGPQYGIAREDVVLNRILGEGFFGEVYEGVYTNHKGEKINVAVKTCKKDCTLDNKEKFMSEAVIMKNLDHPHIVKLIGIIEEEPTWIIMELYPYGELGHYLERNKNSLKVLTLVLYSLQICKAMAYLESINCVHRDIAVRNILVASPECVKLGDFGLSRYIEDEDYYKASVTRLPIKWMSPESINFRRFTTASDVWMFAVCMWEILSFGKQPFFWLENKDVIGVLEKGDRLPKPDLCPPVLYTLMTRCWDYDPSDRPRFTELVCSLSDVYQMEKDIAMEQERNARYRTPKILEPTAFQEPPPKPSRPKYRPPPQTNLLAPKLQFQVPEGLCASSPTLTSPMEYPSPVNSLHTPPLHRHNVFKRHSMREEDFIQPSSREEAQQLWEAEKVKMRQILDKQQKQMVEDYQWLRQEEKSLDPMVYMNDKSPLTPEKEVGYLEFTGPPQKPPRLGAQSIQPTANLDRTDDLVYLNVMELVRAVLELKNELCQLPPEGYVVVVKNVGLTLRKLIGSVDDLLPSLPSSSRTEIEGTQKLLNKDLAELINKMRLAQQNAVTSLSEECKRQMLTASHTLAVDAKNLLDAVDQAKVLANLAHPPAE
Sequence of Fyn (P06241 whole entry): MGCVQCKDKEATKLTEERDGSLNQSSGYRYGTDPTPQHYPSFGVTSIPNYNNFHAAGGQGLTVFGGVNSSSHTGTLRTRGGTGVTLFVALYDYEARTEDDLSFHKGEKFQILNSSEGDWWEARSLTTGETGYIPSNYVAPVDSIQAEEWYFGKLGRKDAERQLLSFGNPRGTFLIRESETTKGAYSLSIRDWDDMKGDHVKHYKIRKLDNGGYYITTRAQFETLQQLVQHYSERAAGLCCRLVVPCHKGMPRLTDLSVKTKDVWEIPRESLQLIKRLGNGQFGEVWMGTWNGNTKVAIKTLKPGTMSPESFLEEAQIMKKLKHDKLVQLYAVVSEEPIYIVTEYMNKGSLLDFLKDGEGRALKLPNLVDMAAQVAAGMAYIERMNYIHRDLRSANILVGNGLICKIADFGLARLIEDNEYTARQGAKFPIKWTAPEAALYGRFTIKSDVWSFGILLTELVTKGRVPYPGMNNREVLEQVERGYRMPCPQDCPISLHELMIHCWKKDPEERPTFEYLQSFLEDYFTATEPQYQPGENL
T2 sequence (Q12851 whole entry): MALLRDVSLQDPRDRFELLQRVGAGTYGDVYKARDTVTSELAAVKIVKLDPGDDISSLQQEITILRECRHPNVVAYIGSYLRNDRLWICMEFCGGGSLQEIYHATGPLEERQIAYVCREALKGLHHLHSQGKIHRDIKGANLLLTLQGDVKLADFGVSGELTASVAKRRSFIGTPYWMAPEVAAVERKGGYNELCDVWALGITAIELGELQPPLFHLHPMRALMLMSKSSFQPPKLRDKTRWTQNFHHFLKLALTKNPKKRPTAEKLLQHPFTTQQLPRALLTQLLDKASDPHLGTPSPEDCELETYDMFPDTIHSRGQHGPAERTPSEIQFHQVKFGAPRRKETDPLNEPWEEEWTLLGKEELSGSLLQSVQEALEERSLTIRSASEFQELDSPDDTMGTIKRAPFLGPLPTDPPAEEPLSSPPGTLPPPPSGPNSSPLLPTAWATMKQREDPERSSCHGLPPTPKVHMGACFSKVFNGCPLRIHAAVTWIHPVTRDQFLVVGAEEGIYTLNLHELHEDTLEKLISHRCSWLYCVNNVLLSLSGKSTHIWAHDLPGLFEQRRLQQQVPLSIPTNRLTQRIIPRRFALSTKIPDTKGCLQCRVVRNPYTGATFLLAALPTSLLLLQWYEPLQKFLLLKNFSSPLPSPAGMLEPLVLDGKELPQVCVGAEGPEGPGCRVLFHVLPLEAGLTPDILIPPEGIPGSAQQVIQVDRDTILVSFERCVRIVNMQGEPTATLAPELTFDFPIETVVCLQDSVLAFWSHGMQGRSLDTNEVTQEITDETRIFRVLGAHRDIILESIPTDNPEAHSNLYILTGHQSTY
Sequence of Inositol-Requiring Enzyme 1 (IRE1) (O75460 547-977): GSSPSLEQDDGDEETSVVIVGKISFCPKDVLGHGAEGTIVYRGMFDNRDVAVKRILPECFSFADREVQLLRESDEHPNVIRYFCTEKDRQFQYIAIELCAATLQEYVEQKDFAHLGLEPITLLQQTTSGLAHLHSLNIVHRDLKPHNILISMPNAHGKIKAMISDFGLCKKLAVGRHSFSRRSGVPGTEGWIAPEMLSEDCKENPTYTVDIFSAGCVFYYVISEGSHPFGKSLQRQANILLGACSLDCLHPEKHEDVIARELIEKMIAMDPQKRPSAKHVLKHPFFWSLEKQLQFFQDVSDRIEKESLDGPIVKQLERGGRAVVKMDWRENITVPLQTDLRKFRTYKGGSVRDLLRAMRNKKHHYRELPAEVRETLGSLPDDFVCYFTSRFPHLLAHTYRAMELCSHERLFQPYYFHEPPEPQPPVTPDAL

For the compound `CCOC(=O)Nc1cccc2c(Oc3ncccc3-c3ccnc(N[C@H]4CCCNC4)n3)c(C)ccc12` [G-1749], in test [1], the IC50 entry was “low-nanomolar”.

Usually inhibition stands for the change of the read-out against control, counted positive when it falls. A high value points to strong suppression. Consider `O=c1cc(-c2n[nH]c3ncc(-c4c(F)cccc4F)cc23)nc(N2CCC(O)CC2)[nH]1` [G-9807], for which the inhibition at 1 µM on Fyn came to 76.2%; at FAK2, 79.6%; on GCK it was 95.7%.
